Assay results taken from patent US20100298141A1, “SUBSTITUTED PYRIDINE N-OXIDE HERBICIDES” (E. I. DU PONT DE NEMOURS AND COMPANY, priority 2007, published 2010).

Key:
eastern black nightshade = assay: Test G preemergence test; format: in vivo, Solanum ptycanthum; conditions: scale 0 to 100
itchgrass = assay: Test G preemergence test; format: in vivo, Rottboellia cochinchinensis; conditions: scale 0 to 100
lambsquarters = assay: Test G preemergence test; format: in vivo, Chenopodium album; conditions: scale 0 to 100
fall panicum = assay: Test G preemergence test; format: in vivo, Panicum dichotomiflorum; conditions: scale 0 to 100
millet foxtail = assay: Test G preemergence test; format: in vivo, Setaria italica; conditions: scale 0 to 100
downy bromegrass = assay: Test D preemergence test; format: in vivo, Bromus tectorum; conditions: scale 0 to 100
Method in brief: (§1)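 Seeds planted and treated preemergence with test chemicals formulated in a non-phytotoxic solvent mixture containing surfactant. A dash means no test result.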

rice = assay: Test B flooded paddy test; format: in vivo, Oryza sativa; conditions: Flood, 250 g ai/ha, 13 to 15 days; scale 0 to 100, 0 no effect, 100 complete control
Method in brief: (§2)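 Test compounds are applied straight into paddy water held 3 cm above the soil surface, with that flood maintained for the whole test. After 13 to 15 days in the greenhouse, each species is scored visually relative to controls.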

barnyardgrass = assay: Test B flooded paddy test; format: in vivo, Echinochloa crus-galli; conditions: Flood, 250 g ai/ha, 13 to 15 days; scale 0 to 100, 0 no effect, 100 complete control
Method in brief: as §2

yellow foxtail = assay: Test G preemergence test; format: in vivo, Pennisetum glaucum; conditions: scale 0 to 100
sorghum = assay: Test G preemergence test; format: in vivo, Sorghum vulgare; conditions: scale 0 to 100
green foxtail = assay: Test D preemergence test; format: in vivo, Setaria viridis; conditions: scale 0 to 100
Method in brief: as §1

littleseed canarygrass = assay: Test D preemergence test; format: in vivo, Phalaris minor; conditions: scale 0 to 100
Method in brief: as §1

tall waterhemp = assay: Test G preemergence test; format: in vivo, Amaranthus tuberculatos; conditions: scale 0 to 100
winter wheat = assay: Test D preemergence test; format: in vivo, Triticum aestivum; conditions: scale 0 to 100
Method in brief: as §1

spring wheat = assay: Test D preemergence test; format: in vivo, Triticum aestivum; conditions: scale 0 to 100
Method in brief: as §1

field violet = assay: Test D preemergence test; format: in vivo, Viola arvensis; conditions: scale 0 to 100
Method in brief: as §1

goosegrass = assay: Test G preemergence test; format: in vivo, Eleusine indica; conditions: scale 0 to 100
broadleaf signalgrass = assay: Test G preemergence test; format: in vivo, Brachiaria platyphylla; conditions: scale 0 to 100
blackgrass = assay: Test D preemergence test; format: in vivo, Alopecurus myosuroides; conditions: scale 0 to 100
Method in brief: as §1

large crabgrass = assay: Test G preemergence test; format: in vivo, Digitaria sanguinalis; conditions: scale 0 to 100
umbrella sedge = assay: Test B flooded paddy test; format: in vivo, Cyperus difformis; conditions: Flood, 250 g ai/ha, 13 to 15 days; scale 0 to 100, 0 no effect, 100 complete control
Method in brief: as §2

yellow nutsedge = assay: Test G preemergence test; format: in vivo, Cyperus esculentus; conditions: scale 0 to 100
duck salad = assay: Test B flooded paddy test; format: in vivo, Heteranthera limosa; conditions: Flood, 250 g ai/ha, 13 to 15 days; scale 0 to 100, 0 no effect, 100 complete control
Method in brief: as §2

winter barley = assay: Test D preemergence test; format: in vivo, Hordeum vulgare
Method in brief: as §1

windgrass = assay: Test D preemergence test; format: in vivo, Apera spica-venti; conditions: scale 0 to 100
Method in brief: as §1

woolly cupgrass = assay: Test G preemergence test; format: in vivo, Eriochloa villosa; conditions: scale 0 to 100

Cn1nc(C(F)(F)F)c(C[S+]([O-])c2cccc[n+]2[O-])c1OC(F)F (centres unmarked) [Compound 3]
Plant response rating, Nightshade (eastern black nightshade; 31 g ai/ha): 0 | Plant response rating, Nightshade (eastern black nightshade; 62 g ai/ha): 60 | Plant response rating, Nightshade (eastern black nightshade; 125 g ai/ha): 65 | Plant response rating, Nightshade (eastern black nightshade; 250 g ai/ha): 100 | Plant response rating, Itchgrass (itchgrass; 31 g ai/ha): 0 | Plant response rating, Itchgrass (itchgrass; 62 g ai/ha): 45 | Plant response rating, Itchgrass (itchgrass; 125 g ai/ha): 60 | Plant response rating, Itchgrass (itchgrass; 250 g ai/ha): 90 | Plant response rating, Lambsquarters (lambsquarters; 31 g ai/ha): 0 | Plant response rating, Lambsquarters (lambsquarters; 62 g ai/ha): 0 | Plant response rating, Lambsquarters (lambsquarters; 125 g ai/ha): 100 | Plant response rating, Lambsquarters (lambsquarters; 250 g ai/ha): 100 | Plant response rating, Fall Panicum (fall panicum; 31 g ai/ha): 0 | Plant response rating, Fall Panicum (fall panicum; 62 g ai/ha): 40 | Plant response rating, Fall Panicum (fall panicum; 125 g ai/ha): 90 | Plant response rating, Fall Panicum (fall panicum; 250 g ai/ha): 95 | Plant response rating, Foxtail, Millet (millet foxtail; 31 g ai/ha): 0 | Plant response rating, Foxtail, Millet (millet foxtail; 62 g ai/ha): 80 | Plant response rating, Foxtail, Millet (millet foxtail; 125 g ai/ha): 100 | Plant response rating, Foxtail, Millet (millet foxtail; 250 g ai/ha): 100 | Plant response rating, Bromegrass, Downy (downy bromegrass; 31 g ai/ha): 0 | Plant response rating, Bromegrass, Downy (downy bromegrass; 62 g ai/ha): 45 | Plant response rating, Bromegrass, Downy (downy bromegrass; 125 g ai/ha): 55 | Plant response rating, Bromegrass, Downy (downy bromegrass; 250 g ai/ha): 55 | Plant response rating, Rice, Transplanted (rice): 60 | Plant response rating, Barnyardgrass (barnyardgrass): 60 | Plant response rating, Foxtail, Yellow (yellow foxtail; 31 g ai/ha): 0 | Plant response rating, Foxtail, Yellow (yellow foxtail; 62 g ai/ha): 75 | Plant response rating, Foxtail, Yellow (yellow foxtail; 125 g ai/ha): 100 | Plant response rating, Foxtail, Yellow (yellow foxtail; 250 g ai/ha): 100 | Plant response rating, Sorghum (sorghum; 31 g ai/ha): 0 | Plant response rating, Sorghum (sorghum; 62 g ai/ha): 10 | Plant response rating, Sorghum (sorghum; 125 g ai/ha): 55 | Plant response rating, Sorghum (sorghum; 250 g ai/ha): 100 | Plant response rating, Foxtail, Green (green foxtail; 31 g ai/ha): 0 | Plant response rating, Foxtail, Green (green foxtail; 62 g ai/ha): 35 | Plant response rating, Foxtail, Green (green foxtail; 125 g ai/ha): 60 | Plant response rating, Foxtail, Green (green foxtail; 250 g ai/ha): 100 | Plant response rating, Canarygrass (littleseed canarygrass; 31 g ai/ha): 0 | Plant response rating, Canarygrass (littleseed canarygrass; 62 g ai/ha): 40 | Plant response rating, Canarygrass (littleseed canarygrass; 125 g ai/ha): 100 | Plant response rating, Canarygrass (littleseed canarygrass; 250 g ai/ha): 100 | Plant response rating, Waterhemp (tall waterhemp; 31 g ai/ha): 0 | Plant response rating, Waterhemp (tall waterhemp; 62 g ai/ha): 0 | Plant response rating, Waterhemp (tall waterhemp; 125 g ai/ha): 100 | Plant response rating, Waterhemp (tall waterhemp; 250 g ai/ha): 100 | Plant response rating, Wheat, Winter (winter wheat; 31 g ai/ha): 0 | Plant response rating, Wheat, Winter (winter wheat; 62 g ai/ha): 10 | Plant response rating, Wheat, Winter (winter wheat; 125 g ai/ha): 15 | Plant response rating, Wheat, Winter (winter wheat; 250 g ai/ha): 40 | Plant response rating, Wheat, Spring (spring wheat; 31 g ai/ha): 0 | Plant response rating, Wheat, Spring (spring wheat; 62 g ai/ha): 0 | Plant response rating, Wheat, Spring (spring wheat; 125 g ai/ha): 15 | Plant response rating, Wheat, Spring (spring wheat; 250 g ai/ha): 20 | Plant response rating, Field Violet (field violet; 31 g ai/ha): 70 | Plant response rating, Field Violet (field violet; 62 g ai/ha): 70 | Plant response rating, Field Violet (field violet; 125 g ai/ha): 85 | Plant response rating, Field Violet (field violet; 250 g ai/ha): 100 | Plant response rating, Goosegrass (goosegrass; 31 g ai/ha): 65 | Plant response rating, Goosegrass (goosegrass; 62 g ai/ha): 80 | Plant response rating, Goosegrass (goosegrass; 125 g ai/ha): 100 | Plant response rating, Goosegrass (goosegrass; 250 g ai/ha): 100 | Plant response rating, Signalgrass (broadleaf signalgrass; 31 g ai/ha): 0 | Plant response rating, Signalgrass (broadleaf signalgrass; 62 g ai/ha): 45 | Plant response rating, Signalgrass (broadleaf signalgrass; 125 g ai/ha): 60 | Plant response rating, Signalgrass (broadleaf signalgrass; 250 g ai/ha): 95 | Plant response rating, Blackgrass (blackgrass; 31 g ai/ha): 0 | Plant response rating, Blackgrass (blackgrass; 62 g ai/ha): 20 | Plant response rating, Blackgrass (blackgrass; 125 g ai/ha): 100 | Plant response rating, Blackgrass (blackgrass; 250 g ai/ha): 100 | Plant response rating, Crabgrass, Large (large crabgrass; 31 g ai/ha): 0 | Plant response rating, Crabgrass, Large (large crabgrass; 62 g ai/ha): 60 | Plant response rating, Crabgrass, Large (large crabgrass; 125 g ai/ha): 100 | Plant response rating, Crabgrass, Large (large crabgrass; 250 g ai/ha): 100 | Plant response rating, Umbrella Sedge (umbrella sedge): 100 | Plant response rating, Nutsedge, Yellow (yellow nutsedge; 31 g ai/ha): 0 | Plant response rating, Nutsedge, Yellow (yellow nutsedge; 62 g ai/ha): 15 | Plant response rating, Nutsedge, Yellow (yellow nutsedge; 125 g ai/ha): 65 | Plant response rating, Nutsedge, Yellow (yellow nutsedge; 250 g ai/ha): 65 | Plant response rating, Ducksalad (duck salad): 90 | Plant response rating, Barley (winter barley; Preemergence, 62 g ai/ha, scale 0 to 100): 0 | Plant response rating, Barley (winter barley; Preemergence, 125 g ai/ha, scale 0 to 100): 0 | Plant response rating, Barley (winter barley; Preemergence, 31 g ai/ha, scale 0 to 100): 0 | Plant response rating, Barley (winter barley; preemergence, 250 g ai/ha, scale 0 (no effect) to 100 (complete control)): 15 | Plant response rating, Windgrass (windgrass; 31 g ai/ha): 0 | Plant response rating, Windgrass (windgrass; 62 g ai/ha): 75 | Plant response rating, Windgrass (windgrass; 125 g ai/ha): 100 | Plant response rating, Windgrass (windgrass; 250 g ai/ha): 100 | Plant response rating, Cupgrass, Woolly (woolly cupgrass; 31 g ai/ha): 0 | Plant response rating, Cupgrass, Woolly (woolly cupgrass; 62 g ai/ha): 40 | Plant response rating, Cupgrass, Woolly (woolly cupgrass; 125 g ai/ha): 95 | Plant response rating, Cupgrass, Woolly (woolly cupgrass; 250 g ai/ha): 100
